According to article PMC12073635, “Synthesis of Tricyclic and Tetracyclic Lactone Derivatives of Thieno[2,3-b]pyrazine or Thieno[2,3-b]quinoline: Preliminary Antitumor and Antiparasitic Activity Evaluation” (Molecules, 2025):
Entries after “also recorded” stand apart in the source; their conditions may differ.

Tests used:
[1] = test system: AGS (gastric adenocarcinoma) cells; test: SRB cell growth inhibition assay, AGS; type: cell-based; conditions: Homo sapiens, 72 h, mean ± standard deviation
Protocol: (§1) The antitumor potential of the Sonogashira coupling products 2, tricyclic lactones 3 and 5, and tetracyclic lactones 7 was evaluated using the sulforhodamine B (SRB) assay against five human tumor cell lines: colorectal adenocarcinoma (CaCo-2), breast adenocarcinoma (MCF-7), gastric adenocarcinoma (AGS), cervical carcinoma (HeLa), and non-small cell lung cancer (NCI-H460). A primary pig liver cell culture (PLP2) was used to assess the toxicity of compounds.
(§2) The human tumor cell lines used were CaCo-2 (colorectal adenocarcinoma), MCF-7 (breast adenocarcinoma), AGS (gastric adenocarcinoma), HeLa (cervical carcinoma), NCI-H460 (lung carcinoma). Non-tumor cell lines were also tested: PLP2 (primary pig liver culture). All the cell lines were maintained in RPMI-1640 medium supplemented with 10% fetal bovine serum, glutamine (2 mM), penicillin (100 U/mL), and streptomycin ([…]), with the exception of PLP2, which was maintained in DMEM medium supplemented with fetal bovine serum (10%), glutamine and antibiotics. The culture flasks were incubated at 37 °C and with 5% CO2, under a humid atmosphere. The cells were used only when they had 70 to 80% confluence. A known mass of each compound was dissolved in DMSO/H2O (1:1, 1 mL), in order to obtain the stock solutions with a concentration of 1 mM. […] Each compound concentration (10 μL) was incubated with the cell suspension (190 μL) of the cell lines tested in 96-well microplates for 72 h. The microplates were incubated at 37 °C and with 5% CO2 in a humid atmosphere after checking the adherence of the cells. All cell lines were tested at a concentration of 10,000 cells/well. After the incubation period, the cells were treated: TCA (10% w/v; 100 μL) was previously cooled, and plates were incubated for 1 h at 4 °C, washed with water, and, after drying, a SRB solution (0.057%, m/v; 100 μL) was added and left to stand at room temperature for 30 min. To remove non-adhered SRB, plates were washed three times with a solution of acetic acid (1% v/v) and placed to dry. Finally, an adhered SRB was solubilized with Tris (10 mM, 200 μL) and the absorbance at a wavelength of 540 nm was read in the Biotek ELX800 microplate reader. The results obtained by the SRB assay were expressed regarding the concentration compounds that can inhibit cell growth by 50%—GI50. Doxorubicin was used as a positive control.

[2] = test system: NCI-H460 (non-small cell lung cancer) cells; test: SRB cell growth inhibition assay, NCI-H460; type: cell-based; conditions: Homo sapiens, 72 h, mean ± standard deviation
Protocol: as §1, §2

[3] = test system: L. infantum MHOM/MA/67/ITMAP-263 promastigotes; test: Resazurin-based assay against L. infantum promastigotes; type: cell-based, Leishmania infantum; conditions: 72 h; for L. infantum % of Activity ± ST.DEV (Single Dose 20 μM): single dose 20 μM, no activity = less than 20%
Protocol: (§3) The antiparasitic activity of compounds 2c–g, 3a, 5a and 7 was evaluated at a single concentration of 20 μM, against Trypanosoma brucei (T. brucei) and Leishmania infantum (L. infantum) promastigotes. The results are shown in Table 9 together with the cytotoxicity data (CC50) in THP-1–derived macrophages cells.
L. infantum MHOM/MA/67/ITMAP-263 promastigotes forms were grown at 27 °C, in complete RPMI-1640 medium supplemented with 10% heat-inactivated Fetal Bovine Serum (FBS), 2 mM L-glutamine, 100 UI/mL penicillin/streptomycin, 20 mM HEPES. Parasites maintenance was performed in T25 non-ventilated flasks by subpassage at a concentration of 1 × 10^6/mL every 5 days on T25 non-ventilated flasks.
The compounds’ efficacy against L. infantum promastigotes was evaluated using a resazurin-based assay. Parasites were added to 100 µL of serial dilutions of compounds in supplemented complete medium at a cell density of 5 × 10^5/mL. As a quality control, a dose–response curve to the antileishmanial drug miltefosine was included in all the assays. The final volume of the assay was 200 µL/well. Each condition was carried out in duplicate. Following 72 h of incubation at the specific conditions for L. infantum, 20 µL of a 0.5 mM resazurin solution was added, and the plates were incubated for a further 4 h under the same conditions. The methodology to obtain the results was the same described in Section 3.2.2. for T. brucei.

[4] = test system: CaCo-2 (colorectal adenocarcinoma) cells; test: SRB cell growth inhibition assay, CaCo-2; type: cell-based, human; conditions: Homo sapiens, Caco-2, 72 h, mean ± standard deviation
Protocol: as §1, §2

[5] = test system: HeLa (cervical carcinoma) cells; test: SRB cell growth inhibition assay, HeLa; type: cell-based; conditions: Homo sapiens, 72 h, mean ± standard deviation
Protocol: as §1, §2

[6] = SRB assay, toxicity in non-tumor PLP2 cells; type: cell-based, pig; conditions: PLP2 primary pig liver cells (non-tumor); non-tumor primary pig liver cells, SRB assay, 72 h, mean ± standard deviation
Protocol: as §1, §2

[7] = MTT cytotoxicity in THP-1-derived macrophages; type: cell-based, human; conditions: human, THP-1-derived macrophages (PMA-differentiated); MTT, 72 h, tested 100 to 12.5 μM; read-out: CC50 Interval in THP-1-Derived Macrophages
Protocol: (§4) Human leukemia cell line, THP-1 (ATCC® TIB-202™, Manassas, VA, USA) was cultured in RPMI-1640 medium supplemented with 10% heat-inactivated Fetal Bovine Serum (FBS), 2 mM L-glutamine, 100 UI/mL penicillin/streptomycin, 20 mM HEPES. The cell line was maintained in a humidified incubator at 37 °C and 5% CO2 by subculture every three days in 20 mL of media at a concentration of 1 × 10^5/mL in a T75 flask. All cell culture reagents were purchased from Lonza-Bioscience (Morrisville, NC, USA).
(§5) The cytotoxicity effect of compounds on THP-1-derived macrophages was assessed by the colorimetric MTT assay (3-(4,5-dimethylthiazol-2-yl)-2,5-diphenyl tetrazolium bromide). Briefly, THP-1 cells were suspended in RPMI complete medium at a density of 1 × 10^6 cells/mL and 100 μL/well were seeded in a 96-well plate and were differentiated into macrophages by addition of 40 ng/mL of phorbol-myristate 13-acetate (PMA, Sigma, Saint Louis, MI, USA) for 24 h followed by replacement with fresh medium for more 24 h. Subsequently, cells were incubated with 100 μL of compounds ranging from 100 to 12.5 μM after dilution in the RPMI complete medium. Each condition was carried out in quadruplicate. After 72 h of incubation at 37 °C 5% CO2, the medium was removed and 200 μL of 0.5 mg/mL MTT solution diluted in RPMI was added. Plates were incubated for an additional 4 h. Then 160 μL of media was removed and the same volume of 2-propanol was added. Absorbance was read at 570 nm using a Synergy 2 Multi-Mode Reader (Biotek, Winooski, VT, USA). Cytotoxicity was evaluated by the determination of the CC50 value (drug concentration that reduced the percentage of viable cells in 50%) and calculated by non-linear regression analysis using GraphPad Prism version 8.1.1 for Windows (GraphPad Software, San Diego, CA, USA). The results represent the average of at least three independent experiments. For each compound, the Selectivity Index (SI) was calculated as the ratio between cytotoxicity in THP-1 (CC50, 72 h) and activity against parasites (IC50, 72 h).

[8] = test system: T. brucei Lister 427 bloodstream forms; test: Resazurin-based anti-T. brucei assay; type: cell-based, Trypanosoma brucei; conditions: 72 h; for T. brucei % of Activity ± ST.DEV (Single Dose 20 μM): single dose 20 μM, no activity = less than 20%
Protocol: as §3
T. brucei Lister 427 bloodstream forms were grown in a humidified incubator at 37 °C, 5% CO2 in complete HMI-9 medium 1 supplemented with 10% heat-inactivated Fetal Bovine Serum (FBS) and 100 UI/mL penicillin/streptomycin. Parasites maintenance was performed in T25 ventilated flasks by subpassage at a concentration of 1 × 10^4/mL every 2 days on T25 ventilated flasks.
The efficacy of compounds against T. brucei bloodstream forms was evaluated using a modified resazurin-based assay previously described in the literature. Parasites were added to 100 µL of serial dilutions of compounds in supplemented complete medium at a cell density of 5 × 10^3/mL for. As a quality control, a dose–response curve for the antitrypanosomal pentamidine was included in all the assays. The final volume of the assay is 200 µL/well. Each condition was carried out in duplicate. Following 72 h incubation at the specific conditions for T. brucei, 20 µL of a 0.5 mM resazurin solution was added and plates were incubated for a further 4 h under the same conditions. Fluorescence was measured at 544 nm and 590 nm excitation and emission wavelength, respectively, using a Synergy 2 Multi-Mode Reader (Biotek, Winooski, VT, USA). Results were shown as % of parasite growth inhibition compared to control (untreated parasites) and represent the average of at least three independent experiments. The effect was evaluated by the determination of the IC50 value (concentration required to inhibit growth in 50%) and calculated by non-linear regression curves using GraphPad Prism version 8.1.1 for Windows (GraphPad Software, San Diego CA, USA).

[9] = test system: MCF-7 (breast adenocarcinoma) cells; test: SRB cell growth inhibition assay, MCF-7; type: cell-based, human; conditions: Homo sapiens, MCF7, 72 h, mean ± standard deviation
Protocol: as §1, §2

[10] = test system: THP-1-derived macrophages; test: MTT cytotoxicity in THP-1-derived macrophages; type: cell-based, human
Protocol: as §4, §5

SMILES | GI50 [1] | GI50 [2] | GI50 [4] | GI50 [5] | GI50 [9] | IC50 ([3]; Leishmania infantum, dose-response) | IC50 ([8]; dose-response) | T. brucei IC50 ([8]; dose-response) | IC50 ([8]; Trypanosoma brucei, dose-response) | L. infantum % of Activity ± ST.DEV (Single Dose 20 μM) [3] | GI50 at 72 h [6] | CC50 at 72 h [7] | T. brucei % of Activity ± ST.DEV (Single Dose 20 μM) [8] | cytotoxicity in THP-1-derived macrophages (in words) [10]
COC(=O)c1sc2nccnc2c1C#Cc1ccc(OC)cc1 [Compound 2d, Methyl 7-[(4-methoxyphenyl)ethynyl]thieno[2,3-b]pyrazine-6-carboxylate] | 59.3 ± 1.97 µM | 82.5 ± 5.35 µM | 79.5 ± 3.58 µM | 62.3 ± 2.98 µM | 67.9 ± 2.47 µM |  |  |  |  | no activity * | > 125 µM | > 100 µM | no activity * | 
O=c1oc(-c2ccc(C(F)(F)F)cc2)c(-c2ccc(C(F)(F)F)cc2)c2c1sc1nc3ccccc3cc12 [Compound 7e, 3,4-Bis(4-(trifluoromethyl)phenyl)-1H-pyrano[4’,3’:4,5]thieno[2,3-b]quinolin-1-one] |  |  |  |  |  |  |  |  |  | no activity * |  | 25 to 50 µM | no activity * | 
COC(=O)c1sc2nccnc2c1C#Cc1ccc(C)cc1 [Compound 2e, Methyl 7-(p-tolylethynyl)thieno[2,3-b]pyrazine-6-carboxylate] | 89.2 ± 5.33 µM | 102 ± 8.13 µM | 93 ± 7.23 µM | 76.9 ± 6.55 µM | 95.8 ± 8.08 µM |  |  |  |  | no activity * | > 125 µM | > 100 µM |  | 
COC(=O)c1sc2nccnc2c1C#Cc1ccsc1 [Compound 2g, Methyl 7-(thiophen-3-ylethynyl)thieno[2,3-b]pyrazine-6-carboxylate] | 46.1 ± 1.77 µM | 62.1 ± 3.05 µM | 30.7 ± 2.35 µM | 36.4 ± 2.85 µM | 60 ± 3.19 µM |  |  |  |  | no activity * | 90.5 ± 6.47 µM | > 100 µM | no activity * | 
COC(=O)c1sc2nccnc2c1C#Cc1ccc(F)cc1 [Compound 2c, Methyl 7-[(4-fluorophenyl)ethynyl]-thieno[2,3-b]pyrazine-6-carboxylate] | 70.7 ± 4.72 µM | 67.2 ± 3.05 µM | 52.1 ± 0.89 µM | 48.3 ± 1.66 µM | 51.8 ± 1.07 µM |  |  |  |  | no activity * | > 125 µM | > 100 µM | no activity * | 
O=c1oc(-c2ccccc2)c(Cl)c2c1sc1nccnc12 [Compound 5a, 9-Chloro-8-phenyl-6H-pyrano[4′,3′:4,5]thieno[2,3-b]pyrazin-6-one] | 36.3 ± 1.47 µM | 51.5 ± 4.18 µM | 41.7 ± 1.02 µM | 35.8 ± 2.08 µM | 52.6 ± 3.18 µM |  | 10.8 µM | low μM range | < 11 µM |  | 66.8 ± 3.58 µM | 50 to 100 µM |  | some level of toxicity; also recorded: some degree of cytotoxicity

Continued, in another order:

GI50 [1] | GI50 [2] | GI50 [4] | GI50 [5] | GI50 [9] | IC50 ([3]; Leishmania infantum, dose-response) | IC50 ([8]; dose-response) | T. brucei IC50 ([8]; dose-response) | IC50 ([8]; Trypanosoma brucei, dose-response) | SMILES | L. infantum % of Activity ± ST.DEV (Single Dose 20 μM) [3] | GI50 at 72 h [6] | CC50 at 72 h [7] | T. brucei % of Activity ± ST.DEV (Single Dose 20 μM) [8] | cytotoxicity in THP-1-derived macrophages (in words) [10]
99.8 ± 4.94 µM | 109 ± 9.16 µM | 91.1 ± 2.46 µM | 82.8 ± 8.02 µM | 101 ± 7.33 µM | 19 µM |  |  |  | CCCCc1oc(=O)c2sc3nc4ccccc4cc3c2c1CCCC [Compound 7b, 3,4-Dibutyl-1H-pyrano[4′,3′:4,5]thieno[2,3-b]quinolin-1-one] |  | > 125 µM | 12.5 to 50 µM | no activity * | 
88.6 ± 5.08 µM | 97.8 ± 6.14 µM | 90 ± 3.29 µM | 75.2 ± 6.72 µM | 91.2 ± 8.71 µM |  |  |  |  | COc1ccc(-c2oc(=O)c3sc4nc5ccccc5cc4c3c2-c2ccc(OC)cc2)cc1 [Compound 7d, 3,4-Bis(4-methoxyphenyl)-1H-pyrano[4′,3′:4,5]thieno[2,3-b]quinolin-1-one] | no activity * | > 125 µM | < 12.5 µM | no activity * | 
93.5 ± 5.37 µM | 93.9 ± 3.18 µM | 75 ± 4.49 µM | 78.9 ± 6.06 µM | 97.9 ± 6.31 µM |  |  |  |  | O=c1oc(-c2ccccc2)c(-c2ccccc2)c2c1sc1nc3ccccc3cc12 [Compound 7a, 3,4-Diphenyl-1H-pyrano[4′,3′:4,5]thieno[2,3-b]quinolin-1-one] | no activity * | > 125 µM | < 12.5 µM |  | 
